Source: the supplement of paper PMC13207355

Tests used:
Details in all cases: exposure time: 72 h
E34 [1] = patient-derived glioblastoma stem cells of proneural subtype; assay: phenotypic distance (Euclidean, principal components) from DMSO controls (arbitrary units); higher = stronger morphological change
E31 [2] = patient-derived glioblastoma stem cells of proneural subtype; assay: as above
FT3469 [3] = normal neural stem cell line; assay: as above
E28 [4] = patient-derived glioblastoma stem cells of classical subtype; assay: as above
E13 [5] = patient-derived glioblastoma stem cells of classical subtype; assay: as above
E57 [6] = patient-derived glioblastoma stem cells of mesenchymal subtype; assay: as above
E21 [7] = patient-derived glioblastoma stem cells of mesenchymal subtype; assay: as above
E34 [8] = assay: surviving fraction (nuclei count normalised to DMSO); higher = more cells surviving (less toxic)
E31 [9] = assay: as above
FT3469 [10] = assay: as above
E28 [11] = assay: as above
E13 [12] = assay: as above
E57 [13] = assay: as above
E21 [14] = assay: as above
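Throughout, for phenotypic distance (Euclidean, principal components) from DMSO controls: cell Painting imaging in 384-well plates, CellProfiler features reduced to at least 20 principal components, Euclidean distance versus same-plate DMSO vehicle wells (0.1% v/v), median over six images per well.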
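Throughout, for surviving fraction (nuclei count normalised to DMSO): nuclei counted by high-content imaging of Hoechst-stained cells in laminin-coated 384-well plates, relative to 0.1% DMSO vehicle wells, with staurosporine as cell-death control.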

COC(=O)Nc1nc2cc(Sc3ccccc3)ccc2[nH]1 [Fenbendazole]
phenotypic distance (E34 [1]; 4.1 nM): 0.744
phenotypic distance (E34 [1]; 12.3 nM): 0.832
phenotypic distance (E34 [1]; 37 nM): 0.751
phenotypic distance (E34 [1]; 111.1 nM): 0.935
phenotypic distance (E34 [1]; 333.3 nM): 1.56
phenotypic distance (E34 [1]; 1000 nM): 4.45
phenotypic distance (E34 [1]; 3000 nM): 5.29
phenotypic distance (E31 [2]; 4.1 nM): 0.332
phenotypic distance (E31 [2]; 12.3 nM): 0.747
phenotypic distance (E31 [2]; 37 nM): 0.989
phenotypic distance (E31 [2]; 111.1 nM): 1.13
phenotypic distance (E31 [2]; 333.3 nM): 1.96
phenotypic distance (E31 [2]; 1000 nM): 6.33
phenotypic distance (E31 [2]; 3000 nM): 5.86
phenotypic distance (FT3469 [3]; 4.1 nM): 0.898
phenotypic distance (FT3469 [3]; 12.3 nM): 0.598
phenotypic distance (FT3469 [3]; 37 nM): 0.489
phenotypic distance (FT3469 [3]; 111.1 nM): 1.42
phenotypic distance (FT3469 [3]; 333.3 nM): 1.54
phenotypic distance (FT3469 [3]; 1000 nM): 2.9
phenotypic distance (FT3469 [3]; 3000 nM): 2.71
phenotypic distance (E28 [4]; 4.1 nM): 0.869
phenotypic distance (E28 [4]; 12.3 nM): 0.342
phenotypic distance (E28 [4]; 37 nM): 0.965
phenotypic distance (E28 [4]; 111.1 nM): 1.03
phenotypic distance (E28 [4]; 333.3 nM): 1.48
phenotypic distance (E28 [4]; 1000 nM): 3.39
phenotypic distance (E28 [4]; 3000 nM): 3.63
phenotypic distance (E13 [5]; 4.1 nM): 0.824
phenotypic distance (E13 [5]; 12.3 nM): 0.763
phenotypic distance (E13 [5]; 37 nM): 0.771
phenotypic distance (E13 [5]; 111.1 nM): 1.88
phenotypic distance (E13 [5]; 333.3 nM): 3.45
phenotypic distance (E13 [5]; 1000 nM): 6.64
phenotypic distance (E13 [5]; 3000 nM): 6.13
phenotypic distance (E57 [6]; 4.1 nM): 0.515
phenotypic distance (E57 [6]; 12.3 nM): 0.484
phenotypic distance (E57 [6]; 37 nM): 1.23
phenotypic distance (E57 [6]; 111.1 nM): 1.6
phenotypic distance (E57 [6]; 333.3 nM): 2.13
phenotypic distance (E57 [6]; 1000 nM): 4.89
phenotypic distance (E57 [6]; 3000 nM): 4.66
phenotypic distance (E21 [7]; 4.1 nM): 0.689
phenotypic distance (E21 [7]; 12.3 nM): 0.58
phenotypic distance (E21 [7]; 37 nM): 1.03
phenotypic distance (E21 [7]; 111.1 nM): 1.63
phenotypic distance (E21 [7]; 333.3 nM): 2.19
phenotypic distance (E21 [7]; 1000 nM): 7.35
phenotypic distance (E21 [7]; 3000 nM): 5.94
surviving fraction (E34 [8]; 4.1 nM): 1.06
surviving fraction (E34 [8]; 12.3 nM): 0.988
surviving fraction (E34 [8]; 37 nM): 0.935
surviving fraction (E34 [8]; 111.1 nM): 1.01
surviving fraction (E34 [8]; 333.3 nM): 0.795
surviving fraction (E34 [8]; 1000 nM): 0.361
surviving fraction (E34 [8]; 3000 nM): 0.349
surviving fraction (E31 [9]; 4.1 nM): 1.12
surviving fraction (E31 [9]; 12.3 nM): 0.906
surviving fraction (E31 [9]; 37 nM): 0.836
surviving fraction (E31 [9]; 111.1 nM): 0.749
surviving fraction (E31 [9]; 333.3 nM): 0.526
surviving fraction (E31 [9]; 1000 nM): 0.0787
surviving fraction (E31 [9]; 3000 nM): 0.0818
surviving fraction (FT3469 [10]; 4.1 nM): 1.03
surviving fraction (FT3469 [10]; 12.3 nM): 1.1
surviving fraction (FT3469 [10]; 37 nM): 0.864
surviving fraction (FT3469 [10]; 111.1 nM): 1.02
surviving fraction (FT3469 [10]; 333.3 nM): 0.864
surviving fraction (FT3469 [10]; 1000 nM): 0.511
surviving fraction (FT3469 [10]; 3000 nM): 0.622
surviving fraction (E28 [11]; 4.1 nM): 1
surviving fraction (E28 [11]; 12.3 nM): 1.09
surviving fraction (E28 [11]; 37 nM): 1.1
surviving fraction (E28 [11]; 111.1 nM): 0.927
surviving fraction (E28 [11]; 333.3 nM): 1.07
surviving fraction (E28 [11]; 1000 nM): 0.359
surviving fraction (E28 [11]; 3000 nM): 0.304
surviving fraction (E13 [12]; 4.1 nM): 1.02
surviving fraction (E13 [12]; 12.3 nM): 1.07
surviving fraction (E13 [12]; 37 nM): 1.05
surviving fraction (E13 [12]; 111.1 nM): 0.86
surviving fraction (E13 [12]; 333.3 nM): 0.548
surviving fraction (E13 [12]; 1000 nM): 0.179
surviving fraction (E13 [12]; 3000 nM): 0.236
surviving fraction (E57 [13]; 4.1 nM): 1
surviving fraction (E57 [13]; 12.3 nM): 1.05
surviving fraction (E57 [13]; 37 nM): 1.06
surviving fraction (E57 [13]; 111.1 nM): 0.964
surviving fraction (E57 [13]; 333.3 nM): 0.841
surviving fraction (E57 [13]; 1000 nM): 0.0618
surviving fraction (E57 [13]; 3000 nM): 0.0799
surviving fraction (E21 [14]; 4.1 nM): 1.07
surviving fraction (E21 [14]; 12.3 nM): 1.02
surviving fraction (E21 [14]; 37 nM): 0.982
surviving fraction (E21 [14]; 111.1 nM): 0.874
surviving fraction (E21 [14]; 333.3 nM): 0.941
surviving fraction (E21 [14]; 1000 nM): 0.105
surviving fraction (E21 [14]; 3000 nM): 0.122

Nc1nc(Cl)nc2c1ncn2[C@@H]1O[C@H](CO)[C@@H](O)[C@@H]1F [Clofarabine]
phenotypic distance (E34 [1]; 4.1 nM): 0.795
phenotypic distance (E34 [1]; 12.3 nM): 0.848
phenotypic distance (E34 [1]; 37 nM): 0.943
phenotypic distance (E34 [1]; 111.1 nM): 2.17
phenotypic distance (E34 [1]; 333.3 nM): 3.94
phenotypic distance (E34 [1]; 1000 nM): 3.25
phenotypic distance (E34 [1]; 3000 nM): 3.42
phenotypic distance (E31 [2]; 4.1 nM): 1.08
phenotypic distance (E31 [2]; 12.3 nM): 1.33
phenotypic distance (E31 [2]; 37 nM): 1.67
phenotypic distance (E31 [2]; 111.1 nM): 2.85
phenotypic distance (E31 [2]; 333.3 nM): 3.28
phenotypic distance (E31 [2]; 1000 nM): 2.52
phenotypic distance (E31 [2]; 3000 nM): 2.66
phenotypic distance (FT3469 [3]; 4.1 nM): 0.724
phenotypic distance (FT3469 [3]; 12.3 nM): 0.807
phenotypic distance (FT3469 [3]; 37 nM): 0.917
phenotypic distance (FT3469 [3]; 111.1 nM): 1.95
phenotypic distance (FT3469 [3]; 333.3 nM): 2.04
phenotypic distance (FT3469 [3]; 1000 nM): 1.6
phenotypic distance (FT3469 [3]; 3000 nM): 2.19
phenotypic distance (E28 [4]; 4.1 nM): 1.24
phenotypic distance (E28 [4]; 12.3 nM): 1.42
phenotypic distance (E28 [4]; 37 nM): 1.73
phenotypic distance (E28 [4]; 111.1 nM): 2.31
phenotypic distance (E28 [4]; 333.3 nM): 3.06
phenotypic distance (E28 [4]; 1000 nM): 3.17
phenotypic distance (E28 [4]; 3000 nM): 3.21
phenotypic distance (E13 [5]; 4.1 nM): 0.623
phenotypic distance (E13 [5]; 12.3 nM): 2.78
phenotypic distance (E13 [5]; 37 nM): 0.684
phenotypic distance (E13 [5]; 111.1 nM): 0.632
phenotypic distance (E13 [5]; 333.3 nM): 0.616
phenotypic distance (E13 [5]; 1000 nM): 1.66
phenotypic distance (E13 [5]; 3000 nM): 5.91
phenotypic distance (E57 [6]; 4.1 nM): 0.635
phenotypic distance (E57 [6]; 12.3 nM): 1.15
phenotypic distance (E57 [6]; 37 nM): 2.09
phenotypic distance (E57 [6]; 111.1 nM): 5.48
phenotypic distance (E57 [6]; 333.3 nM): 5.92
phenotypic distance (E57 [6]; 1000 nM): 6.82
phenotypic distance (E57 [6]; 3000 nM): 6.53
phenotypic distance (E21 [7]; 4.1 nM): 0.844
phenotypic distance (E21 [7]; 12.3 nM): 1.11
phenotypic distance (E21 [7]; 37 nM): 1.36
phenotypic distance (E21 [7]; 111.1 nM): 2.15
phenotypic distance (E21 [7]; 333.3 nM): 4.37
phenotypic distance (E21 [7]; 1000 nM): 4.92
phenotypic distance (E21 [7]; 3000 nM): 4.35
surviving fraction (E34 [8]; 4.1 nM): 0.858
surviving fraction (E34 [8]; 12.3 nM): 1.04
surviving fraction (E34 [8]; 37 nM): 0.894
surviving fraction (E34 [8]; 111.1 nM): 0.777
surviving fraction (E34 [8]; 333.3 nM): 0.558
surviving fraction (E34 [8]; 1000 nM): 0.495
surviving fraction (E34 [8]; 3000 nM): 0.541
surviving fraction (E31 [9]; 4.1 nM): 0.754
surviving fraction (E31 [9]; 12.3 nM): 0.892
surviving fraction (E31 [9]; 37 nM): 0.64
surviving fraction (E31 [9]; 111.1 nM): 0.205
surviving fraction (E31 [9]; 333.3 nM): 0.142
surviving fraction (E31 [9]; 1000 nM): 0.236
surviving fraction (E31 [9]; 3000 nM): 0.206
surviving fraction (FT3469 [10]; 4.1 nM): 0.827
surviving fraction (FT3469 [10]; 12.3 nM): 0.915
surviving fraction (FT3469 [10]; 37 nM): 0.875
surviving fraction (FT3469 [10]; 111.1 nM): 0.79
surviving fraction (FT3469 [10]; 333.3 nM): 0.702
surviving fraction (FT3469 [10]; 1000 nM): 0.497
surviving fraction (FT3469 [10]; 3000 nM): 0.428
surviving fraction (E28 [11]; 4.1 nM): 0.864
surviving fraction (E28 [11]; 12.3 nM): 0.907
surviving fraction (E28 [11]; 37 nM): 0.515
surviving fraction (E28 [11]; 111.1 nM): 0.559
surviving fraction (E28 [11]; 333.3 nM): 0.341
surviving fraction (E28 [11]; 1000 nM): 0.366
surviving fraction (E28 [11]; 3000 nM): 0.3
surviving fraction (E13 [12]; 4.1 nM): 0.852
surviving fraction (E13 [12]; 12.3 nM): 0.979
surviving fraction (E13 [12]; 37 nM): 0.86
surviving fraction (E13 [12]; 111.1 nM): 0.941
surviving fraction (E13 [12]; 333.3 nM): 0.913
surviving fraction (E13 [12]; 1000 nM): 0.789
surviving fraction (E13 [12]; 3000 nM): 0.318
surviving fraction (E57 [13]; 4.1 nM): 0.939
surviving fraction (E57 [13]; 12.3 nM): 0.847
surviving fraction (E57 [13]; 37 nM): 0.741
surviving fraction (E57 [13]; 111.1 nM): 0.402
surviving fraction (E57 [13]; 333.3 nM): 0.186
surviving fraction (E57 [13]; 1000 nM): 0.168
surviving fraction (E57 [13]; 3000 nM): 0.165
surviving fraction (E21 [14]; 4.1 nM): 0.962
surviving fraction (E21 [14]; 12.3 nM): 0.885
surviving fraction (E21 [14]; 37 nM): 0.825
surviving fraction (E21 [14]; 111.1 nM): 0.771
surviving fraction (E21 [14]; 333.3 nM): 0.343
surviving fraction (E21 [14]; 1000 nM): 0.118
surviving fraction (E21 [14]; 3000 nM): 0.116
